What was measured:
Type in all cases: physicochemical
[1] = Polymorph screening (stability of solid forms); conditions: for Relative stability of solid form in polymorph screening: under the conditions tested in this study
Description: Form B was obtained from anti-solvent addition experiment with ACN/water from Form A. Form B was observed only as a wet cake, which convers back to Form A when air-dried. The XRPD, TGA/DSC, and PLM characterizations with the same parameters described above were performed. […] (FIG. 5). The weight loss started immediately with heat applied and it stopped 75° C.
(§1) The approximate solubility of compound of Formula I (starting material, prepared as described above) was measured at RT in 20 different solvents. Approximately 2 mg of starting material were added into a 3-mL glass vial. Solvents were then added step wise into the vials until the solids were dissolved or a total volume of 1 mL was reached (Note: this is not thermodynamic solubility estimation, vortex and sonication were applied in between each solvent to accelerate the dissolution). Results summarized in Table 3-1 were used to guide the solvent selection for the polymorph screening. Beginning with the starting material, polymorph screening experiments were set up using methods of Slurry at different temperatures, Slow Cooling, Liquid and Solid Vapor Diffusion, Slow Evaporation, Anti-Solvent Addition and Ionic Liquid. The methods utilized, and crystal forms identified are summarized in Table 3-2 (Type A and Form A are used interchangeably and Type B and Form B are used interchangeably).
As described above, polymorph screening experiments were set up using methods of Slurry at different temperatures, Slow Cooling, Liquid and Solid Vapor Diffusion, Slow Evaporation, Anti-Solvent Addition, and Ionic Liquid. Two types, Form A (anhydrate) and Form B (weak solvate) were obtained from the experiments.
Further investigation was performed for Form B to better understand the phase origin.
Other than Form B (i.e., Type B), no additional polymorph was observed during the rest of the screening. […]
The approximate solubility of compound of Formula II (starting material) was determined at RT in 20 different solvents. […]
The molecular structure was determined by single crystal X-ray diffraction.

[2] = Characterization of anhydrate Form II of compound of Formula III
Description: Anhydrate Form II of compound of Formula III was characterized by XRPD, TGA, DSC and HPLC. As shown in XRPD result (FIG. 11), the sample was crystalline and conformed to Form II. Its HPLC purity was determined to be 99.78 area %. […] (onset temperature) in DSC were observed. […] Form II is the stable form of compound of Formula III.

[3] = DVS test of compound of Formula I
[4] = Approximate solubility of starting material at RT in 20 solvents
Description: as §1
The approximate solubility of compound of Formula II (starting material) was determined at RT in 20 different solvents. Approximately 2 mg of the material were added into a 2-mL glass vial. Solvents were then added step into the vials until the solids were dissolved or a total volume of 1 mL was reached (Note: this is not a thermodynamic solubility estimation; vortex and sonication were applied in between each solvent addition to accelerate the dissolution). Results summarized in Table 5-1 were used to guide the solvent selection for the polymorph screening. Beginning with the starting material, polymorph screening experiments were set up using methods of Slurry at different temperatures, Slow Cooling, Liquid and Solid Vapor Diffusions, Slow Evaporation, Anti-Solvent Addition, and Ionic Liquid. No new polymorphs were observed during the screening. Type X and Form X are used interchangeably.

[5] = Heat and light stressed stability of compound of Formula I in 95/5 (v/v) acetonitrile/isopropanol solution; conditions: for Purity, Chemical / Purity, Chiral: solution
Description: In addition, the stressed stability in 95/5 (v/v) acetonitrile /isopropanol solutions was also evaluated (e.g., during the SMB separation and successive work-up). Samples were stored under two different conditions over a period of 10 days: exposed to light at room temperature and in an oven at 60° C.

[6] = Long-term stability study of compound of Formula I, 25° C./60% RH
Description: Long-term and accelerated stability studies were performed as below using the compound of Formula I prepared as described in Example 2.1.
Tests include appearance, purity by HPLC, assay by HPLC, chiral purity by HPLC, and water by KF titration. […]

[7] = Wet cake drying study on compound of Formula II
Description: The wet cake drying study on compound of Formula II was carried out on a sample (98.67% purity of compound of Formula II) in an open dish held at 40° C. under vacuum. The sample was analyzed after one week (98.79% purity of compound of Formula II) and since the sample was stable, the study was extended another month. […] (98.74% purity of compound of Formula II).

[8] = organic solvent or mixture, ACN
[9] = organic solvent or mixture, Acetone
[10] = organic solvent or mixture, Cyclohexane
[11] = organic solvent or mixture, DCM
[12] = organic solvent or mixture, DMF
[13] = organic solvent or mixture, DMSO
[14] = organic solvent or mixture, EtOAc
[15] = organic solvent or mixture, EtOH
[16] = organic solvent or mixture, IPA
[17] = organic solvent or mixture, IPAc
[18] = organic solvent or mixture, MIBK
[19] = organic solvent or mixture, MTBE
[20] = organic solvent or mixture, MeOH
[21] = organic solvent or mixture, MeTHF
[22] = organic solvent or mixture, NMP
[23] = organic solvent or mixture, Pentane
[24] = organic solvent or mixture, Toluene
[25] = organic solvent or mixture, n-Butyl Acetate
[26] = organic solvent or mixture, n-Heptane

CCCCC1(CCCC)CS(=O)(=O)c2ccc(N(C)C)cc2[C@@H](c2ccc(OC)cc2)[C@H]1O [Form A, (4R,5R)-3,3-dibutyl-7-(dimethylamino)-4-hydroxy-5-(4-methoxyphenyl)-2,3,4,5-tetrahydrobenzo[b]thiepine 1,1-dioxide]
Relative stability of solid form in polymorph screening [1]: most stable form

CCCCC1(CCCC)CS(=O)(=O)c2ccc(N(C)C)cc2[C@@H](c2ccc(OC)cc2)[C@H]1O [Form B, (4R,5R)-3,3-dibutyl-7-(dimethylamino)-4-hydroxy-5-(4-methoxyphenyl)-2,3,4,5-tetrahydrobenzo[b]thiepine 1,1-dioxide]
Solid form after air-drying of the wet cake (XRPD) ([1]; air-dried overnight): converted back to Form A

CCCCC1(CCCC)CS(=O)(=O)c2ccc(N(C)C)cc2[C@@H](c2ccc(OCc3ccc(C[N+]45CCN(CC4)CC5)cc3)cc2)[C@H]1O.[Cl-] [Form II, 1-(4-((4-((4R,5R)-3,3-dibutyl-7-(dimethylamino)-4-hydroxy-1,1-dioxido-2,3,4,5-tetrahydrobenzo[b]thiepin-5-yl)phenoxy)methyl)benzyl)-1,4-diazabicyclo[2.2.2] octan-1-ium chloride]
Stability of solid form [2]: stable form

CCCCC1(CCCC)CS(=O)(=O)c2ccc(N(C)C)cc2[C@@H](c2ccc(O)cc2)[C@H]1O [Form X, (4R,5R)-3,3-dibutyl-7-(dimethylamino)-4-hydroxy-5-(4-hydroxyphenyl)-2,3,4,5-tetrahydrobenzo[b]thiepine 1,1-dioxide]
Relative stability of solid form in polymorph screening [1]: most stable form

CCCCC1(CCCC)CS(=O)(=O)c2ccc(N(C)C)cc2[C@@H](c2ccc(OC)cc2)[C@H]1O [Formula I, (4R,5R)-3,3-dibutyl-7-(dimethylamino)-4-hydroxy-5-(4-methoxyphenyl)-2,3,4,5-tetrahydrobenzo[b]thiepine 1,1-dioxide]
Form transition before and after DVS test [3]: no form transition observed
Hygroscopicity by DVS [3]: Non-hygroscopic
solubility [4, 8]: > 44 mg/mL
solubility [4, 9]: > 54 mg/mL
solubility [4, 10]: < 2 mg/mL
solubility [4, 11]: > 58 mg/mL
solubility [4, 12]: > 48 mg/mL
solubility [4, 13]: > 50 mg/mL
solubility [4, 14]: > 40 mg/mL
solubility [4, 15]: 27 to 54 mg/mL
solubility [4, 16]: 7.3 to 22 mg/mL
solubility [4, 17]: 24 to 48 mg/mL
solubility [4, 18]: > 50 mg/mL
solubility [4, 19]: 9.3 to 28 mg/mL
solubility [4, 20]: 29 to 58 mg/mL
solubility [4, 21]: > 56 mg/mL
solubility [4, 22]: > 46 mg/mL
solubility [4, 23]: < 2.7 mg/mL
solubility [4, 24]: > 54 mg/mL
solubility [4, 25]: > 56 mg/mL
solubility [4, 26]: < 2.8 mg/mL
solubility ([4]; water, H2O): < 2.3 mg/mL
Stability (chemical and chiral purity) for SMB operation and work-up ([5]; 95/5 (v/v) acetonitrile/isopropanol, 10 days, light at RT or 60° C.): adequate stability
Purity, Chemical ([5]; RT (light), Day 0): 99.4 % a/a
Purity, Chiral ([5]; RT (light), Day 0): 99.6 % a/a
Purity, Chemical ([5]; RT (light), Day 3): 99.4 % a/a
Purity, Chiral ([5]; RT (light), Day 3): 99.6 % a/a
Purity, Chemical ([5]; RT (light), Day 7): 99.4 % a/a
Purity, Chiral ([5]; RT (light), Day 7): 99.7 % a/a
Purity, Chemical ([5]; RT (light), Day 10): 99.4 % a/a
Purity, Chiral ([5]; RT (light), Day 10): 99.4 % a/a
Purity, Chemical ([5]; T = 60° C., Day 0): 99.3 % a/a
Purity, Chiral ([5]; T = 60° C., Day 0): 99.7 % a/a
Purity, Chemical ([5]; T = 60° C., Day 3): 98.7 % a/a
Purity, Chiral ([5]; T = 60° C., Day 3): 99.5 % a/a
Purity, Chemical ([5]; T = 60° C., Day 7): 98.5 % a/a
Purity, Chiral ([5]; T = 60° C., Day 7): 99.8 % a/a
Purity, Chemical ([5]; T = 60° C., Day 10): 98.5 % a/a
Purity, Chiral ([5]; T = 60° C., Day 10): 99.7 % a/a
Appearance (Color, morphology) ([6]; 0 months): Off-white
HPLC Assay ([6]; 0 months): 95.5% w/w
HPLC Purity ([6]; 0 months): 99.6% a/a
HPLC Purity - Chiral ([6]; 0 months): 100.0% a/a
Water by KF Titration ([6]; 0 months): <0.1% w/w
Appearance (Color, morphology) ([6]; 3 months): Off-white
HPLC Assay ([6]; 3 months): 96.3% w/w
HPLC Purity ([6]; 3 months): 99.9% a/a
HPLC Purity - Chiral ([6]; 3 months): 100.0% a/a
Water by KF Titration ([6]; 3 months): <0.1% w/w
Appearance (Color, morphology) ([6]; 6 months): Off-white
HPLC Assay ([6]; 6 months): 96.4% w/w
HPLC Purity ([6]; 6 months): 99.8% a/a
HPLC Purity - Chiral ([6]; 6 months): 100.0% a/a
Water by KF Titration ([6]; 6 months): <0.1% w/w
Appearance (Color, morphology) ([6]; 12 months): Off-white
HPLC Assay ([6]; 12 months): 96.5% w/w
HPLC Purity ([6]; 12 months): 99.8% a/a
HPLC Purity - Chiral ([6]; 12 months): 100.0% a/a
Water by KF Titration ([6]; 12 months): <0.1% w/w

CCCCC1(CCCC)CS(=O)(=O)c2ccc(N(C)C)cc2[C@@H](c2ccc(O)cc2)[C@H]1O [Formula II, (4R,5R)-3,3-dibutyl-7-(dimethylamino)-4-hydroxy-5-(4-hydroxyphenyl)-2,3,4,5-tetrahydrobenzo[b]thiepine 1,1-dioxide]
solubility [4, 8]: 2.9 to 9.7 mg/mL
solubility [4, 9]: 26 to 52 mg/mL
solubility [4, 10]: < 2 mg/mL
solubility [4, 11]: 8.7 to 26 mg/mL
solubility [4, 12]: > 40 mg/mL
solubility [4, 13]: > 44 mg/mL
solubility [4, 14]: 20 to 40 mg/mL
solubility [4, 15]: 2.7 to 9.3 mg/mL
solubility [4, 16]: 2.6 to 8.7 mg/mL
solubility [4, 17]: 7.7 to 23 mg/mL
solubility [4, 18]: 21 to 43 mg/mL
solubility [4, 19]: 2.4 to 8 mg/mL
solubility [4, 20]: 7.3 to 22 mg/mL
solubility [4, 21]: 21 to 42 mg/mL
solubility [4, 22]: > 44 mg/mL
solubility [4, 23]: < 2.7 mg/mL
solubility [4, 24]: < 2.8 mg/mL
solubility [4, 25]: 8.3 to 25 mg/mL
solubility [4, 26]: < 2 mg/mL
solubility ([4]; water, H2O): < 2 mg/mL
Purity of compound of Formula II ([7]; open dish, 40° C. under vacuum, after one week): 98.79%
Purity of compound of Formula II ([7]; open dish, 40° C. under vacuum, study extended another month): 98.74%
Hold time of the solid ([7]; under vacuum at 40° C.): at least a month
Purity of compound of Formula II ([7]; wet cake sample at start of study): 98.67%

— patent US20240116891A1, “MARALIXIBAT SOLID FORMS, INTERMEDIATES AND PROCESSES OF MAKING SAME” (MIRUM PHARMACEUTICALS, INC., priority 2022, published 2024)
